Molecular target: T1, trypsin (Bos taurus, UniProt P00760)
T1 sequence (P00760 24-246): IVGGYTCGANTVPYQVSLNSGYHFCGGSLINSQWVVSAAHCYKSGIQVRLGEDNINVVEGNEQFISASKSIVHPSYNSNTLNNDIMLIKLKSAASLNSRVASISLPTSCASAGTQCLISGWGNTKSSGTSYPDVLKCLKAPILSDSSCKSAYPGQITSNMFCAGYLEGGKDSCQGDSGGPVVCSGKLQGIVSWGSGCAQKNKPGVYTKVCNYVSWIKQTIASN
Assay: trypsin enzyme inhibition activity
Type: biochemical
Conditions: enzyme inhibition activity of the resynthesized screened compound, FIGS. 4-5
Method: According to the structural formula, the compound is tested at the end of synthesis.

- IC50: 8.1 ± 2.1 nM
Structure (SMILES): C[C@H](NC(=O)[C@H](CNC(=O)Cc1ccc2ccccc2c1)NS(=O)(=O)c1ccccc1)C(=O)NCc1ccc(C(=N)N)cc1
